Experimental data from ChEMBL document CHEMBL2396591, “Identification of potent and orally bioavailable nucleotide competing reverse transcriptase inhibitors: in vitro and in vivo optimization of a series of benzofurano[3,2-d]pyrimidin-2-one derived inhibitors” (Bioorg Med Chem Lett, 2013).
Converted amounts (≈) assume the structure as drawn.

Experiments:
Rattus norvegicus = assay: Clearance in rat at 2 mg/kg, iv; assay type: ADME, organism-based; set-up: dose 2 mg/kg, route intravenous; settings: in vivo
[1] = Cmax in rat at 5 mg/kg, po; assay type: ADME, organism-based; set-up: dose 5 mg/kg, route oral; settings: in vivo
[2] = Oral bioavailability in rat at 5 mg/kg; assay type: ADME, organism-based; settings: in vivo
[3] = Octanol-phosphate buffer partition coefficient, log D of the compound at pH 7.4; assay type: physicochemical
[4] = Aqueous solubility of the compound in phosphate buffer at pH 2 after 24 hrs; assay type: physicochemical
[5] = Aqueous solubility of the compound in phosphate buffer at pH 6.8 after 24 hrs; assay type: physicochemical

Structure (SMILES)	CL (Rattus norvegicus)	Cmax [1]	bioavailability [2]	logD [3]	solubility at 24 h [4]	solubility at 24 h [5]
Cn1cc(-c2cnc3oc4c(-c5cscn5)nc(=O)n(CCC5CCCO5)c4c3c2)cn1 (stereo not drawn)	–	–	–	1.5	–	–
Cn1cc(-c2cnc3oc4c(-c5ccn(C)n5)nc(=O)n(CCC5CCCO5)c4c3c2)cn1 (stereo not drawn)	–	–	–	0.9	–	–
Cn1cc(-c2cnc3oc4c(-c5cn(C)nn5)nc(=O)n(CCC5CCCO5)c4c3c2)cn1 (stereo not drawn)	–	–	–	1.5	–	–
Cn1cc(-c2cnc3oc4c(-c5cnn(C)c5)nc(=O)n(CCC5CCCO5)c4c3c2)cn1 (stereo not drawn)	–	–	–	1.5	–	–
CCn1cc(-c2nc(=O)n(CCC3CCCO3)c3c2oc2ncc(-c4cnn(C)c4)cc23)cn1 (stereo not drawn)	–	–	–	2.2	–	–
CN(C)c1cnc(-c2nc(=O)n(CCC3CCCO3)c3c2oc2ncc(-c4cnn(C)c4)cc23)cn1 (stereo not drawn)	–	–	–	2	–	–
Cn1cc(-c2cnc3oc4c(-c5cccnc5)nc(=O)n(CCC5CCCO5)c4c3c2)cn1 (stereo not drawn)	–	–	–	1.7	–	–
Cn1cc(-c2cnc3oc4c(-c5ccncc5)nc(=O)n(CCC5CCCO5)c4c3c2)cn1 (stereo not drawn)	–	–	–	1.8	–	–
CC[C@H]1C[C@@H](n2c(=O)nc(-c3cnn(C)c3)c3oc4cnc(-c5cn(C)cn5)cc4c32)CCO1 (relative stereo)	–	–	–	2.6	420 µg/mL (≈ 914 µM)	5.3 µg/mL (≈ 11.5 µM)
CC[C@H]1C[C@@H](n2c(=O)nc(-c3cnn(C)c3)c3oc4ccc(-c5cn(C)cn5)nc4c32)CCO1 (relative stereo)	9.4%	3100 nM	69%	2.7	> 480 µg/mL	0.6 µg/mL (≈ 1.31 µM)
CC[C@H]1C[C@@H](n2c(=O)nc(-c3cnn(C)c3)c3oc4cnc(-c5cnn(C)c5)cc4c32)CCO1 (relative stereo)	18%	1600 nM	88%	2.2	< 0.1 µg/mL	< 0.1 µg/mL
CC[C@H]1C[C@@H](n2c(=O)nc(-c3cnn(C)c3)c3oc4ccc(-c5cnn(C)c5)nc4c32)CCO1 (relative stereo)	18%	460 nM	35%	3	0.2 µg/mL (≈ 0.435 µM)	0.2 µg/mL (≈ 0.435 µM)
CC[C@H]1C[C@@H](n2c(=O)nc(-c3cnn(C)c3)c3oc4cc(C#N)c(-c5cnn(C)c5)cc4c32)CCO1 (relative stereo)	–	–	–	2.5	0.2 µg/mL (≈ 0.414 µM)	0.2 µg/mL (≈ 0.414 µM)
CC[C@H]1C[C@@H](n2c(=O)nc(-c3cnn(C)c3)c3oc4cc(C#N)c(-c5cnn(C)c5)nc4c32)CCO1 (relative stereo)	4.6%	8900 nM	94%	2.7	7.9 µg/mL (≈ 16.3 µM)	2.1 µg/mL (≈ 4.33 µM)
CC[C@H]1C[C@@H](n2c(=O)nc(-c3cnn(C)c3)c3oc4ccc(-c5cncn5C)cc4c32)CCO1 (relative stereo)	–	–	–	2.3	> 920 µg/mL	106 µg/mL (≈ 231 µM)
CC[C@H]1C[C@@H](n2c(=O)nc(-c3cnn(C)c3)c3oc4ccc(-c5cn(C)cn5)cc4c32)CCO1 (relative stereo)	13%	1200 nM	51%	2.6	> 1000 µg/mL	5 µg/mL (≈ 10.9 µM)

The next lines start with the values.

CL (Rattus norvegicus)	Cmax [1]	bioavailability [2]	logD [3]	solubility at 24 h [4]	solubility at 24 h [5]	Structure (SMILES)
37%	140 nM	36%	–	–	–	CNc1ccc(-c2nc(=O)n(CC[C@@H]3CCCO3)c3c2oc2ncc(-c4cnn(C)c4)cc23)cn1
–	–	–	3.4	–	–	CNc1ccc(-c2nc(=O)n(CCC3CC(C)(C)CO3)c3c2oc2ncc(-c4cnn(C)c4)cc23)cn1 (stereo not drawn)
–	–	–	2.5	–	–	COc1cncc(-c2nc(=O)n(CCC3CCCO3)c3c2oc2ncc(-c4cnn(C)c4)cc23)c1 (stereo not drawn)
–	–	–	3.5	–	–	COc1ccc(-c2nc(=O)n(CCC3CCCO3)c3c2oc2ncc(-c4cnn(C)c4)cc23)cc1 (stereo not drawn)
–	–	–	2.8	–	–	COc1ccc(-c2nc(=O)n(CCC3CCCO3)c3c2oc2ncc(-c4cnn(C)c4)cc23)cn1 (stereo not drawn)
–	–	–	1.9	–	–	CNc1ccc(-c2nc(=O)n(CCC3CCCO3)c3c2oc2ncc(-c4cnn(C)c4)cc23)nc1 (stereo not drawn)
–	–	–	2.8	–	–	COc1cc(-c2nc(=O)n(CCC3CCCO3)c3c2oc2ncc(-c4cnn(C)c4)cc23)ccn1 (stereo not drawn)
–	–	–	3.2	–	–	CNc1ccc(-c2nc(=O)n(CCC3CCCCO3)c3c2oc2ncc(-c4cnn(C)c4)cc23)cn1 (stereo not drawn)
–	–	–	2.5	–	–	CNc1ccc(-c2nc(=O)n(CCC3CCOCC3)c3c2oc2ncc(-c4cnn(C)c4)cc23)cn1
–	–	–	3.3	–	–	CNc1ccc(-c2nc(=O)n(C(C)CC3CCCO3)c3c2oc2ncc(-c4cnn(C)c4)cc23)cn1 (stereo not drawn)
–	–	–	3.2	–	–	CNc1ccc(-c2nc(=O)n(CCC3CCC(C)O3)c3c2oc2ncc(-c4cnn(C)c4)cc23)cn1 (stereo not drawn)
–	–	–	2.9	–	–	CCC1(OC)CC(n2c(=O)nc(-c3ccc(NC)nc3)c3oc4ncc(-c5cnn(C)c5)cc4c32)C1 (stereo not drawn)
–	–	–	2.6	–	–	CC[C@H]1C[C@H](n2c(=O)nc(-c3ccc(NC)nc3)c3oc4ncc(-c5cnn(C)c5)cc4c32)CCO1 (racemic)
19%	1100 nM	34%	2.9	–	–	CC[C@H]1C[C@@H](n2c(=O)nc(-c3ccc(NC)nc3)c3oc4ncc(-c5cnn(C)c5)cc4c32)CCO1 (racemic)
–	–	–	2.7	–	–	CNc1ccc(-c2nc(=O)n(CCC3CCCO3)c3c2oc2ncc(-c4cnn(C)c4)cc23)cn1 (racemic)
–	–	–	1.8	> 1000 µg/mL	2.8 µg/mL (≈ 6.09 µM)	CC[C@H]1C[C@@H](n2c(=O)nc(-c3cnn(C)c3)c3oc4ncc(-c5cn(C)cn5)cc4c32)CCO1 (relative stereo)
–	–	–	3	< 0.1 µg/mL	< 0.1 µg/mL	CC[C@H]1C[C@@H](n2c(=O)nc(-c3cnn(C)c3)c3oc4ccc(-c5cnn(C)c5)cc4c32)CCO1 (relative stereo)
